Measured values published in patent publication US20210369675A1, “ANTIMICROBIAL DRUG METHODS OF USE & THERAPEUTIC COMPOSITIONS” (priority 2017, published 2021).
Entries after “also recorded” stand apart in the source; their conditions may differ.

What was measured:
[1] = cited from earlier work; for elimination half-life (T1/2): after a single administration of rac-ornidazole in a formulation; for AUC0-∞: after a single administration
[2] = test system: Burkholderia pseudomallei; assay type: cell-based
[3] = test system: Burkholderia pseudomallei; conditions: cited from earlier work
Brucella melitensis = conditions: cited from earlier work
[4] = current 300 mg capsule formulation, per product label; cited from earlier work

Molecule: Cc1ncc([N+](=O)[O-])n1C[C@H](O)CCl [(S)-ornidazole]
- elimination half-life (T1/2) [1]: similar
- AUC0-∞ [1]: similar

Molecule: Cc1ncc([N+](=O)[O-])n1CC(O)CCl (racemic) [(rac)-ornidazole, 1-chloro-3-(2-methyl-5-nitro-1H-imidazol-1-yl)propan-2-ol]
- inhibition of B. pseudomallei grown under anaerobic conditions [2]: inhibition; also recorded: effectively inhibited

Molecule: trimethoprim-sulfamethoxazole
- effectiveness of conventional antibiotics against B. pseudomallei [3]: not effective
- effectiveness of conventional antibiotics against B. melitensis (Brucella melitensis): not effective

Molecule: C[C@H](CCC(=O)O)[C@H]1CC[C@H]2[C@@H]3[C@@H](O)C[C@@H]4C[C@H](O)CC[C@]4(C)[C@H]3CC[C@]12C [Ursodiol, ursodeoxycholic acid]
- fraction of drug absorbed in the small intestines (small bowel) [4]: 90%
- fraction of drug reaching the colon [4]: less than 10%

Molecule: O=C(N[C@H](CO)[C@H](O)c1ccc([N+](=O)[O-])cc1)C(Cl)Cl [chloramphenicol]
- effectiveness of conventional antibiotics against B. pseudomallei [3]: not effective
- effectiveness of conventional antibiotics against B. melitensis (Brucella melitensis): not effective

Molecule: CC(C)(O/N=C(\C(=O)N[C@@H]1C(=O)N2C(C(=O)[O-])=C(C[n+]3ccccc3)CS[C@H]12)c1csc(N)n1)C(=O)O [ceftazidime]
- effectiveness of conventional antibiotics against B. pseudomallei [3]: not effective
- effectiveness of conventional antibiotics against B. melitensis (Brucella melitensis): not effective

Molecule: Cc1ncc([N+](=O)[O-])n1C[C@@H](O)CCl [(R)-ornidazole]
- elimination half-life (T1/2) [1]: similar
- AUC0-∞ [1]: similar
